From PMC4835159 (Journal of Medicinal Chemistry, 2016)
In brackets after ≈: the same amount, converted by molar mass. Like-named read-outs stand apart in the source and are kept apart here.

Columns and labels:
[1] = target: T1, CYP121 (Mycobacterium tuberculosis, UniProt P9WPP7); experiment: Native mass spectrometry of CYP121 with ligands; assay type: binding
[2] = system: CYP1A (combined CYP1A1 and CYP1A2); experiment: Human P450 inhibition in human liver microsomes, CYP1A (ethoxyresorufin); conditions: human
[3] = target: T2, CYP144TR (Mycobacterium tuberculosis, UniProt P9WPL1)
T2 sequence (P9WPL1 31-434 limits assumed): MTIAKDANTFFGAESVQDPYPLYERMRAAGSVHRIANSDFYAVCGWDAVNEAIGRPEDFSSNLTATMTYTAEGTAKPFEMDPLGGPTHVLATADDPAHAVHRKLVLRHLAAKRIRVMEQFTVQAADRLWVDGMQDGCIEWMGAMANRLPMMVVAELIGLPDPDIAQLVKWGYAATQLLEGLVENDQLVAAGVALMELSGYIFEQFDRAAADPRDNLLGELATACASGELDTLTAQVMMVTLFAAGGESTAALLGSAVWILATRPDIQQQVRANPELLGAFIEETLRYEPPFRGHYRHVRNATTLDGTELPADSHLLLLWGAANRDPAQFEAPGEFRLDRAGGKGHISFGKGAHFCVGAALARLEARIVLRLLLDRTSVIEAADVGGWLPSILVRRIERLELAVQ

[4] = system: Mtb H37Rv; experiment: Antimycobacterial activity assay (MIC90); assay type: cell-based, Mycobacterium tuberculosis; set-up: key to MIC90: “N” indicates that compounds did not produce any significant cell death within the tested concentration range; conditions: triplicate, 0–100 μM, 2 weeks
[5] = target: T1, CYP121; assay type: binding
[6] = target: T1, CYP121; experiment: Single shot UV–vis absorbance assay (Soret band shift, competition with type II inhibitor) on CYP121; assay type: binding; conditions: for Binding Mode, CYP121: analogues 100 μM or 1 mM, P450 2.5–5 μM
[7] = target: T3, CYP125 (Mycobacterium tuberculosis, UniProt P9WPP1); experiment: Single shot UV–vis binding mode assay on CYP125
T3 sequence (P9WPP1 1-433): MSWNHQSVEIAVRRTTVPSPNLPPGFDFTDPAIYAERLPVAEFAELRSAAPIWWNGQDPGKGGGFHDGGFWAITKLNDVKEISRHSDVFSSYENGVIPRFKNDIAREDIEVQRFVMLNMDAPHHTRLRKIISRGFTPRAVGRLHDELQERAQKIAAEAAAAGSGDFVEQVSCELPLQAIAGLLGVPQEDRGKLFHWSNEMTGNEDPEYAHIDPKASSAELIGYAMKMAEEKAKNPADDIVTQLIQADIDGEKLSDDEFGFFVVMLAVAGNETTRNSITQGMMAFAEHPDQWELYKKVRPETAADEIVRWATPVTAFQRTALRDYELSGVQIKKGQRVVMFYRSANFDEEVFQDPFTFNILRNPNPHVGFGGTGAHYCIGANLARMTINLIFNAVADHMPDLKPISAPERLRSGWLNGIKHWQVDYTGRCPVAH

[8] = target: T4, CYP143 (Mycobacterium tuberculosis, UniProt P9WPL3); experiment: Single shot UV–vis binding mode assay on CYP143; conditions: analogues 100 μM or 1 mM, P450 2.5–5 μM
T4 construct: made in house
T4 sequence (P9WPL3 whole entry): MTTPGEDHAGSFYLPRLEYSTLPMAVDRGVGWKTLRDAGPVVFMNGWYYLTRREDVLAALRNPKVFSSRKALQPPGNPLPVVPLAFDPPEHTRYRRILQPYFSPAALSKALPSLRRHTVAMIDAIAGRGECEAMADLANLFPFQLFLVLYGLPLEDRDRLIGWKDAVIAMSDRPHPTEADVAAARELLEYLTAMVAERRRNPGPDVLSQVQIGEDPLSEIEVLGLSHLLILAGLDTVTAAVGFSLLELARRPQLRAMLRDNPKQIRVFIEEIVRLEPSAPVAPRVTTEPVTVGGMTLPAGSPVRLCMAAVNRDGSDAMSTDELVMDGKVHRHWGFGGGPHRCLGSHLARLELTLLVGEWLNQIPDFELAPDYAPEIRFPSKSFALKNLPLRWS
Method: UV–vis screening was performed using a CARY400 UV–vis spectrophotometer (Varian, CA, USA). Ligands were prepared as DMSO-d6 stock solutions (1–100 mM) and added to protein (5 μM) solutions (198 μL) or to buffer alone to give a final DMSO-d6 concentration of 1% v/v. CYP121 was prepared in 50 mM Tris-HCl (pH 7.2), 1 mM EDTA buffer. CYP125, CYP126, CYP142, CYP143, and CYP144 were prepared in 50 mM Tris-HCl (pH 7.5), 100 mM KCl buffer. CYP124 was prepared in 100 mM potassium phosphate (pH 7.0), 100 mM KCl buffer. Spectra were recorded between 800 and 250 nm at 25 °C. Any spectral interference from the inherent absorbance of added ligands/solvent was removed by subtracting spectra collected for protein-free samples of the same ligands/solvent in buffer. The difference in Soret wavelength maximum (Δλmax) of the respective P450s Soret band (λmax) in the presence of ligands compared to that obtained for a 1% v/v DMSO-d6 control was used to identify type I or type II heme-binding interactions. […]
The difference in the red-shift of the Soret band between competition assays and that found for the known type II ligand in the absence of competing ligands was used to determine competitive binding. Buffer control spectra were collected to account for any inherent absorbance of added ligands/solvent and all solutions were inspected and found to be free of precipitate. […]

[9] = system: CYP1A; experiment: Human P450 inhibition in human liver microsomes, CYP1A (ethoxyresorufin); conditions: IC50 for CYP1A versus CYP121 KD
[10] = target: the molecule itself; experiment: native MS

Molecule: Nc1cccc(-c2cccc(-c3c(-c4ccc(O)cc4)n[nH]c3N)c2)c1 [25a, 4-(5-Amino-4-(3′-amino-[1,1′-biphenyl]-3-yl)-1H-pyrazol-3-yl)phenol]
- Monomer (%) of CYP121 ([1]; Protein-Ligand Ratio 1:0.5): 14%
- ligand binding stoichiometry, CYP121 Dimer ([1]; Protein-Ligand Ratio 1:0.5): 1
- ligand binding stoichiometry, CYP121 Monomer ([1]; Protein-Ligand Ratio 1:0.5): 1
- Monomer (%) of CYP121 ([1]; Protein-Ligand Ratio 1:1): 13%
- ligand binding stoichiometry, CYP121 Dimer ([1]; Protein-Ligand Ratio 1:1): 2
- ligand binding stoichiometry, CYP121 Monomer ([1]; Protein-Ligand Ratio 1:1): 1
- Monomer (%) of CYP121 ([1]; Protein-Ligand Ratio 1:25): 0%
- ligand binding stoichiometry, CYP121 Dimer ([1]; Protein-Ligand Ratio 1:25): 2
- ligand binding stoichiometry, CYP121 Monomer ([1]; Protein-Ligand Ratio 1:25): 1
- selectivity ratio [2]: ~15000
- Binding Mode, CYP144TR [3]: N
- MIC90 ([4]; Mycobacterium tuberculosis, 336 h, read-out: MIC90): 100 µM (≈ 34.2 µg/mL)
- LE (ligand efficiency) [5]: 0.41
- shifts in the CYP121 optical spectrum ([6]; UV–vis spectroscopy): type II shifts
- Δλmax (type II shift) ([6]; ligand 100 μM, CYP121): +5.0 nm
- Binding Mode, CYP125 [7]: N

Molecule: Nc1[nH]nc(-c2ccc(O)cc2)c1-c1ccc(O)cc1 [compound 5, 4,4′-(5-Amino-1H-pyrazole-3,4-diyl)diphenol]
- Binding Mode, CYP143 [8]: N
- Binding Mode, CYP144TR [3]: N
- MIC90 [4]: N
- LE (ligand efficiency) ([5]; Gibbs free energy of binding to CYP121 divided by number of heavy atoms (ΔG/HA)): 0.30
- Binding Mode, CYP121 [6]: N
- Binding Mode, CYP125 [7]: N

Molecule: Oc1ccc(CNc2[nH]nc(-c3ccc(O)cc3)c2-c2ccc(O)cc2)cc1 [26a, 4,4′-(5-((4-Hydroxybenzyl)amino)-1H-pyrazole-3,4-diyl)diphenol]
- Binding Mode, CYP143 [8]: N
- Monomer (%) of CYP121 ([1]; Protein-Ligand Ratio 1:0.5): 14%
- ligand binding stoichiometry, CYP121 Dimer ([1]; Protein-Ligand Ratio 1:0.5): 1
- ligand binding stoichiometry, CYP121 Monomer ([1]; Protein-Ligand Ratio 1:0.5): 0
- Monomer (%) of CYP121 ([1]; Protein-Ligand Ratio 1:1): 29%
- ligand binding stoichiometry, CYP121 Dimer ([1]; Protein-Ligand Ratio 1:1): 1
- ligand binding stoichiometry, CYP121 Monomer ([1]; Protein-Ligand Ratio 1:1): 0
- Monomer (%) of CYP121 ([1]; Protein-Ligand Ratio 1:25): 14%
- ligand binding stoichiometry, CYP121 Dimer ([1]; Protein-Ligand Ratio 1:25): 2
- ligand binding stoichiometry, CYP121 Monomer ([1]; Protein-Ligand Ratio 1:25): 1
- app SR (IC50/KD) [9]: >4
- Binding Mode, CYP144TR [3]: N
- MIC90 [4]: N
- LE (ligand efficiency) [5]: 0.25
- Binding Mode, CYP121 [6]: N

B1: Mycobacterium tuberculosis CYP121 (Rv2276), His6-tagged construct (enzyme)
chain: MTATVLLEVPFSARGDRIPDAVAELRTREPIRKVRTITGAEAWLVSSYALCTQVLEDRRFSMKETAAAGAPRLNALTVPPEVVNNMGNIADAGLRKAVMKAITPKAPGLEQFLRDTANSLLDNLITEGAPADLRNDFADPLATALHCKVLGIPQEDGPKLFRSLSIAFMSSADPIPAAKINWDRDIEYMAGILENPNITTGLMGELSRLRKDPAYSHVSDELFATIGVTFFGAGVISTGSFLTTALISLIQRPQLRNLLHEKPELIPAGVEELLRINLSFADGLPRLATADIQVGDVLVRKGELVLVLLEGANFDPEHFPNPGSIELDRPNPTSHLAFGRGQHFCPGSALGRRHAQIGIEALLKKMPGVDLAVPIDQLVWRTRFQRRIPERLPVLW
- stoichiometry N [10]: 2
